In ChEMBL document CHEMBL1201862, “PubChem BioAssay data set” (2004):
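Results reflect a 48-hour exposure of cells in 96-well plates to compound at five concentrations. The concentration for 50% growth inhibition is given as GI50.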 Active and inactive are the calls of the source. Cut-off read from the data, not from the text of the source: active = GI50 up to about 1.1 µM and inactive = higher.

Experiments:
Test in all cases: NCI-60 cell line screen, 48 h
786-0 = system: 786-0
CCRF-CEM = system: CCRF-CEM
CAKI-1 = system: CAKI-1
NCI-H23 = system: NCI-H23
NCI-H460 = system: NCI-H460
NCI-H522 = system: NCI-H522
MDA-MB-435 = system: MDA-MB-435
NCI/ADR-RES = system: NCI/ADR-RES
SK-MEL-2 = system: SK-MEL-2
MOLT-4 = system: MOLT-4
OVCAR-5 = system: OVCAR-5
RXF 393 = system: RXF 393
A549 = system: A549
A498 = system: A498
MCF7 = system: MCF7
EKVX = system: EKVX
ACHN = system: ACHN
SN12C = system: SN12C
SK-OV-3 = system: SK-OV-3
UO-31 = system: UO-31
COLO 205 = system: COLO 205
Hs-578T = system: Hs-578T
K562 = system: K562
PC-3 = system: PC-3
HL-60 = system: HL-60
MDA-MB-231 = system: MDA-MB-231
HCC 2998 = system: HCC 2998
SF-295 = system: SF-295
TK-10 = system: TK-10
T47D = system: T47D
SK-MEL-5 = system: SK-MEL-5
SF-539 = system: SF-539
KM12 = system: KM12
OVCAR-8 = system: OVCAR-8
U-251 = system: U-251
DU-145 = system: DU-145
SNB-75 = system: SNB-75
HCT-15 = system: HCT-15
SW-620 = system: SW-620
LOX IMVI = system: LOX IMVI
M14 = system: M14
HCT-116 = system: HCT-116
IGROV-1 = system: IGROV-1
MDA-N = system: MDA-N
SF-268 = system: SF-268
HT-29 = system: HT-29
SR = system: SR
NCI-H226 = system: NCI-H226
UACC-62 = system: UACC-62
HOP-62 = system: HOP-62
RPMI-8226 = system: RPMI-8226
SK-MEL-28 = system: SK-MEL-28
OVCAR-4 = system: OVCAR-4
Malme-3M = system: Malme-3M
OVCAR-3 = system: OVCAR-3
SNB-19 = system: SNB-19
UACC-257 = system: UACC-257
HOP-92 = system: HOP-92
BT-549 = system: BT-549

SMILES: CN1CCC/C1=N\C#N
- GI50 (786-0): > 100 µM (inactive)
- GI50 (CCRF-CEM): > 100 µM (inactive)
- GI50 (CAKI-1): > 100 µM (inactive)
- GI50 (NCI-H23): > 100 µM (inactive)
- GI50 (NCI-H460): > 100 µM (inactive)
- GI50 (NCI-H522): > 100 µM (inactive)
- GI50 (MDA-MB-435): > 100 µM (inactive)
- GI50 (NCI/ADR-RES): > 100 µM (inactive)
- GI50 (SK-MEL-2): > 100 µM (inactive)
- GI50 (MOLT-4): > 100 µM (inactive)
- GI50 (OVCAR-5): > 100 µM (inactive)
- GI50 (RXF 393): > 100 µM (inactive)
- GI50 (A549): > 100 µM (inactive)
- GI50 (A498): > 100 µM (inactive)
- GI50 (MCF7): > 100 µM (inactive)
- GI50 (EKVX): > 100 µM (inactive)
- GI50 (ACHN): > 100 µM (inactive)
- GI50 (SN12C): > 100 µM (inactive)
- GI50 (SK-OV-3): > 100 µM (inactive)
- GI50 (UO-31): > 100 µM (inactive)
- GI50 (COLO 205): > 100 µM (inactive)
- GI50 (Hs-578T): > 100 µM (inactive)
- GI50 (K562): > 100 µM (inactive)
- GI50 (PC-3): > 100 µM (inactive)
- GI50 (HL-60): > 100 µM (inactive)
- GI50 (MDA-MB-231): > 100 µM (inactive)
- GI50 (HCC 2998): > 100 µM (inactive)
- GI50 (SF-295): > 100 µM (inactive)
- GI50 (TK-10): > 100 µM (inactive)
- GI50 (T47D): > 100 µM (inactive)
- GI50 (SK-MEL-5): > 100 µM (inactive)
- GI50 (SF-539): > 100 µM (inactive)
- GI50 (KM12): > 100 µM (inactive)
- GI50 (OVCAR-8): > 100 µM (inactive)
- GI50 (U-251): > 100 µM (inactive)
- GI50 (DU-145): > 100 µM (inactive)
- GI50 (SNB-75): > 100 µM (inactive)
- GI50 (HCT-15): > 100 µM
- GI50 (SW-620): > 100 µM (inactive)
- GI50 (LOX IMVI): > 100 µM (inactive)
- GI50 (M14): > 100 µM (inactive)
- GI50 (HCT-116): > 100 µM (inactive)
- GI50 (IGROV-1): > 100 µM (inactive)
- GI50 (MDA-N): > 100 µM (inactive)
- GI50 (SF-268): > 100 µM (inactive)
- GI50 (HT-29): > 100 µM (inactive)
- GI50 (SR): > 100 µM (inactive)
- GI50 (NCI-H226): > 100 µM (inactive)
- GI50 (UACC-62): > 100 µM (inactive)
- GI50 (HOP-62): > 100 µM (inactive)
- GI50 (RPMI-8226): > 100 µM (inactive)
- GI50 (SK-MEL-28): > 100 µM (inactive)
- GI50 (OVCAR-4): > 100 µM (inactive)
- GI50 (Malme-3M): > 100 µM (inactive)
- GI50 (OVCAR-3): > 100 µM (inactive)
- GI50 (SNB-19): > 100 µM (inactive)

SMILES: C=C(Br)CN(C#N)CC(=C)Br
- GI50 (786-0): > 100 µM (inactive)
- GI50 (CCRF-CEM): > 100 µM (inactive)
- GI50 (CAKI-1): > 100 µM (inactive)
- GI50 (NCI-H23): > 100 µM (inactive)
- GI50 (NCI-H460): > 100 µM (inactive)
- GI50 (NCI-H522): > 100 µM (inactive)
- GI50 (MDA-MB-435): > 100 µM (inactive)
- GI50 (NCI/ADR-RES): > 100 µM (inactive)
- GI50 (SK-MEL-2): > 100 µM (inactive)
- GI50 (MOLT-4): > 100 µM (inactive)
- GI50 (OVCAR-5): > 100 µM (inactive)
- GI50 (RXF 393): > 100 µM (inactive)
- GI50 (A549): > 100 µM (inactive)
- GI50 (A498): > 100 µM (inactive)
- GI50 (MCF7): > 100 µM (inactive)
- GI50 (EKVX): > 100 µM (inactive)
- GI50 (ACHN): > 100 µM (inactive)
- GI50 (SN12C): > 100 µM (inactive)
- GI50 (SK-OV-3): > 100 µM (inactive)
- GI50 (UO-31): > 100 µM (inactive)
- GI50 (COLO 205): > 100 µM (inactive)
- GI50 (Hs-578T): > 100 µM (inactive)
- GI50 (K562): > 100 µM (inactive)
- GI50 (PC-3): > 100 µM (inactive)
- GI50 (HL-60): 8.85 µM (inactive)
- GI50 (MDA-MB-231): > 100 µM (inactive)
- GI50 (HCC 2998): > 100 µM (inactive)
- GI50 (SF-295): > 100 µM (inactive)
- GI50 (UACC-257): > 100 µM (inactive)
- GI50 (TK-10): > 100 µM (inactive)
- GI50 (T47D): > 100 µM (inactive)
- GI50 (SK-MEL-5): > 100 µM (inactive)
- GI50 (SF-539): > 100 µM (inactive)
- GI50 (KM12): > 100 µM (inactive)
- GI50 (OVCAR-8): > 100 µM (inactive)
- GI50 (U-251): > 100 µM (inactive)
- GI50 (DU-145): > 100 µM (inactive)
- GI50 (SNB-75): > 100 µM (inactive)
- GI50 (HCT-15): > 100 µM
- GI50 (SW-620): > 100 µM (inactive)
- GI50 (LOX IMVI): > 100 µM (inactive)
- GI50 (M14): > 100 µM (inactive)
- GI50 (HCT-116): > 100 µM (inactive)
- GI50 (IGROV-1): > 100 µM (inactive)
- GI50 (MDA-N): > 100 µM (inactive)
- GI50 (SF-268): > 100 µM (inactive)
- GI50 (HT-29): > 100 µM (inactive)
- GI50 (SR): > 100 µM (inactive)
- GI50 (NCI-H226): > 100 µM (inactive)
- GI50 (UACC-62): > 100 µM (inactive)
- GI50 (HOP-62): > 100 µM (inactive)
- GI50 (RPMI-8226): > 100 µM (inactive)
- GI50 (SK-MEL-28): > 100 µM (inactive)
- GI50 (OVCAR-4): > 100 µM (inactive)
- GI50 (Malme-3M): > 100 µM (inactive)
- GI50 (OVCAR-3): > 100 µM (inactive)
- GI50 (SNB-19): > 100 µM (inactive)

SMILES: C#CCNC(CS)C(=O)O (stereo not drawn)
- GI50 (HOP-92): > 100 µM (inactive)
- GI50 (786-0): > 100 µM (inactive)
- GI50 (CCRF-CEM): > 100 µM (inactive)
- GI50 (CAKI-1): > 100 µM (inactive)
- GI50 (NCI-H23): > 100 µM (inactive)
- GI50 (NCI-H460): > 100 µM (inactive)
- GI50 (NCI-H522): > 100 µM (inactive)
- GI50 (MDA-MB-435): > 100 µM (inactive)
- GI50 (NCI/ADR-RES): > 100 µM (inactive)
- GI50 (SK-MEL-2): > 100 µM (inactive)
- GI50 (MOLT-4): > 100 µM (inactive)
- GI50 (OVCAR-5): > 100 µM (inactive)
- GI50 (BT-549): > 100 µM (inactive)
- GI50 (RXF 393): > 100 µM (inactive)
- GI50 (A549): > 100 µM (inactive)
- GI50 (A498): > 100 µM (inactive)
- GI50 (EKVX): > 100 µM (inactive)
- GI50 (ACHN): > 100 µM (inactive)
- GI50 (SK-OV-3): > 100 µM (inactive)
- GI50 (UO-31): > 100 µM (inactive)
- GI50 (COLO 205): > 100 µM (inactive)
- GI50 (Hs-578T): > 100 µM (inactive)
- GI50 (K562): > 100 µM (inactive)
- GI50 (PC-3): > 100 µM (inactive)
- GI50 (HL-60): > 100 µM (inactive)
- GI50 (MDA-MB-231): > 100 µM (inactive)
- GI50 (HCC 2998): > 100 µM (inactive)
- GI50 (SF-295): > 100 µM (inactive)
- GI50 (UACC-257): > 100 µM (inactive)
- GI50 (TK-10): > 100 µM (inactive)
- GI50 (T47D): > 100 µM (inactive)
- GI50 (SK-MEL-5): > 100 µM (inactive)
- GI50 (KM12): > 100 µM (inactive)
- GI50 (OVCAR-8): > 100 µM (inactive)
- GI50 (U-251): > 100 µM (inactive)
- GI50 (DU-145): > 100 µM (inactive)
- GI50 (SNB-75): > 100 µM (inactive)
- GI50 (HCT-15): > 100 µM
- GI50 (SW-620): > 100 µM (inactive)
- GI50 (LOX IMVI): > 100 µM (inactive)
- GI50 (M14): > 100 µM (inactive)
- GI50 (HCT-116): > 100 µM (inactive)
- GI50 (IGROV-1): > 100 µM (inactive)
- GI50 (SF-268): > 100 µM (inactive)
- GI50 (HT-29): > 100 µM (inactive)
- GI50 (SR): > 100 µM (inactive)
- GI50 (NCI-H226): > 100 µM (inactive)
- GI50 (UACC-62): > 100 µM (inactive)
- GI50 (HOP-62): > 100 µM (inactive)
- GI50 (RPMI-8226): > 100 µM (inactive)
- GI50 (SK-MEL-28): > 100 µM (inactive)
- GI50 (OVCAR-4): > 100 µM (inactive)
- GI50 (Malme-3M): > 100 µM (inactive)
- GI50 (OVCAR-3): > 100 µM (inactive)
- GI50 (SNB-19): > 100 µM (inactive)
